From the kinase profiling compilation of Christmann-Franck et al. (2016)

How the values were obtained:
Assay in all cases: radiometric filter-binding kinase assay, Kinase HotSpot
Conditions in all cases: compound 0.5 µM; ATP 10 µM
[1] = molecular target: AKT2 (human) (UniProt P31751)
[2] = molecular target: AURKB (human) (UniProt Q96GD4)
[3] = molecular target: AXL (human) (UniProt P30530)
[4] = molecular target: CAMK2G (human) (UniProt Q13555)
[5] = molecular target: CDK7 CCNH MNAT1 (human) (UniProt P50613+P51948+P51946)
[6] = molecular target: CSF1R (human) (UniProt P07333)
[7] = molecular target: CSNK1G1 (human) (UniProt Q9HCP0)
[8] = molecular target: DYRK3 (human) (UniProt O43781)
[9] = molecular target: EPHA4 (human) (UniProt P54764)
[10] = molecular target: EPHB1 (human) (UniProt P54762)
[11] = molecular target: EPHB4 (human) (UniProt P54760)
[12] = molecular target: ERBB4 (human) (UniProt Q15303)
[13] = molecular target: HCK (human) (UniProt P08631)
[14] = molecular target: INSRR (human) (UniProt P14616)
[15] = molecular target: ITK (human) (UniProt Q08881)
[16] = molecular target: JAK2 JH1 JH2 (human) (UniProt O60674)
Chain of JAK2 JH1 JH2 (human) (O60674 whole entry, looked up): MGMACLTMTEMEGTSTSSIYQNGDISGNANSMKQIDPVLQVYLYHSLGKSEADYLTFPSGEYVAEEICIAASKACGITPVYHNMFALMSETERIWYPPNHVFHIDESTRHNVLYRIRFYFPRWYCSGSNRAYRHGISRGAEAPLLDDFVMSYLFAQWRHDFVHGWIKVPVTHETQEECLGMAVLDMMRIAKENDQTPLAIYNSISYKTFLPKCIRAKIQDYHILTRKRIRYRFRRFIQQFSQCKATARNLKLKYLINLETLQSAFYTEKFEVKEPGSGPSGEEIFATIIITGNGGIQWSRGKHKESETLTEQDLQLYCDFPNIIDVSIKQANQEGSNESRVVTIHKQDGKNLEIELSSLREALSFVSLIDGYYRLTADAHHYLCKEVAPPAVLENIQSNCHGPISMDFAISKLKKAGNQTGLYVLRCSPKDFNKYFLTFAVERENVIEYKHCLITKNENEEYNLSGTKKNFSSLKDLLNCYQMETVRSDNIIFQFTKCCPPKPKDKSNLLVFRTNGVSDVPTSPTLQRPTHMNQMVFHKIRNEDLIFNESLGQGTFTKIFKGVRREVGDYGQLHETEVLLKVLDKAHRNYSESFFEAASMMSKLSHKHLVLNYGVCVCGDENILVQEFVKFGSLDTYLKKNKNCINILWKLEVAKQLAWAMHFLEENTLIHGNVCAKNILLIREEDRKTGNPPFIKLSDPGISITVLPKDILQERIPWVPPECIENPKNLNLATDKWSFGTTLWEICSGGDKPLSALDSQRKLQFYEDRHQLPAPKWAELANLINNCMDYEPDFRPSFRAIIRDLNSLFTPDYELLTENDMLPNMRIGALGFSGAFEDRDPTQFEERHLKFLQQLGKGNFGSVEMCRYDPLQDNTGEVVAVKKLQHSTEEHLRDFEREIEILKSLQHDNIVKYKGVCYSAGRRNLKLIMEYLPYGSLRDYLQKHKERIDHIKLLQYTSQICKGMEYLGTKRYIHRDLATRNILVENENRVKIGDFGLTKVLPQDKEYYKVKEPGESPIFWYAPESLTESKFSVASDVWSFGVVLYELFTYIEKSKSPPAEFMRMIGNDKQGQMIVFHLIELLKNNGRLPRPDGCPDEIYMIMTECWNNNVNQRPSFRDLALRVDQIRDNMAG

[17] = molecular target: MAP2K2 (human) (UniProt P36507)
[18] = molecular target: MAPK12 (human) (UniProt P53778)
[19] = molecular target: MAPK3 (human) (UniProt P27361)
[20] = molecular target: MAPKAPK3 (human) (UniProt Q16644)
[21] = molecular target: MAPKAPK5 (human) (UniProt Q8IW41)
Chain of MAPKAPK5 (human) (Q8IW41 whole entry, looked up): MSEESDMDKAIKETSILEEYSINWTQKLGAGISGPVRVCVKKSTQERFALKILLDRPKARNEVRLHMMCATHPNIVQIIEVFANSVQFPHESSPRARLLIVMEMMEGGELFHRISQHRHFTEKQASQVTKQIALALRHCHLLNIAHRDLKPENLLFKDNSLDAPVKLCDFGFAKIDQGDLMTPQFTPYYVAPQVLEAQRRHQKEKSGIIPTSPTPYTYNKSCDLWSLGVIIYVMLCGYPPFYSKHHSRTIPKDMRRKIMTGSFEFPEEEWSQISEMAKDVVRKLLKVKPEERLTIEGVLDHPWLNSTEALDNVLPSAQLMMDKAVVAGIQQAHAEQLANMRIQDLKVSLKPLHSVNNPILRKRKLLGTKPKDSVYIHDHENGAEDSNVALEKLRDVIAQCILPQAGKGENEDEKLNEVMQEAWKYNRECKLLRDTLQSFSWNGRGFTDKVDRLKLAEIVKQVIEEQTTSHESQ

[22] = molecular target: MERTK (human) (UniProt Q12866)
[23] = molecular target: MLTK (human) (UniProt Q9NYL2)
[24] = molecular target: NEK4 (human) (UniProt P51957)
[25] = molecular target: NUAK1 (human) (UniProt O60285)
[26] = molecular target: NUAK2 (human) (UniProt Q9H093)
[27] = molecular target: PAK2 (human) (UniProt Q13177)
[28] = molecular target: PASK (human) (UniProt Q96RG2)
[29] = molecular target: PDGFRA (human) (UniProt P16234)
[30] = molecular target: PDPK1 (human) (UniProt O15530)
[31] = molecular target: PHKG2 (human) (UniProt P15735)
Chain of PHKG2 (human) (P15735 whole entry, looked up): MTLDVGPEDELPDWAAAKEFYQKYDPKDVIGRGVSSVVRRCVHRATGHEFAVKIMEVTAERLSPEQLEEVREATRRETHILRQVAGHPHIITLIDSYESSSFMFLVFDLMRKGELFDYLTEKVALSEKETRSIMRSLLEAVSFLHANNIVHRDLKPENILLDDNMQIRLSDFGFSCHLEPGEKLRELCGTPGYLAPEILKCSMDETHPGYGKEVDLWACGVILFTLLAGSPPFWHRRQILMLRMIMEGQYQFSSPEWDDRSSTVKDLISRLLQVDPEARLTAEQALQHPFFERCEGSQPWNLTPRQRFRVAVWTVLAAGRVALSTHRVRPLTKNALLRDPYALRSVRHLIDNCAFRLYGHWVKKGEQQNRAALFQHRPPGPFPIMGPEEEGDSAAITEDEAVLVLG

[32] = molecular target: PKN1 (human) (UniProt Q16512)
[33] = molecular target: PKN2 (human) (UniProt Q16513)
[34] = molecular target: PRKACA (human) (UniProt P17612)
[35] = molecular target: PRKCE (human) (UniProt Q02156)
[36] = molecular target: PTK2 (human) (UniProt Q05397)
[37] = molecular target: PTK2B (human) (UniProt Q14289)
Chain of PTK2B (human) (Q14289 whole entry, looked up): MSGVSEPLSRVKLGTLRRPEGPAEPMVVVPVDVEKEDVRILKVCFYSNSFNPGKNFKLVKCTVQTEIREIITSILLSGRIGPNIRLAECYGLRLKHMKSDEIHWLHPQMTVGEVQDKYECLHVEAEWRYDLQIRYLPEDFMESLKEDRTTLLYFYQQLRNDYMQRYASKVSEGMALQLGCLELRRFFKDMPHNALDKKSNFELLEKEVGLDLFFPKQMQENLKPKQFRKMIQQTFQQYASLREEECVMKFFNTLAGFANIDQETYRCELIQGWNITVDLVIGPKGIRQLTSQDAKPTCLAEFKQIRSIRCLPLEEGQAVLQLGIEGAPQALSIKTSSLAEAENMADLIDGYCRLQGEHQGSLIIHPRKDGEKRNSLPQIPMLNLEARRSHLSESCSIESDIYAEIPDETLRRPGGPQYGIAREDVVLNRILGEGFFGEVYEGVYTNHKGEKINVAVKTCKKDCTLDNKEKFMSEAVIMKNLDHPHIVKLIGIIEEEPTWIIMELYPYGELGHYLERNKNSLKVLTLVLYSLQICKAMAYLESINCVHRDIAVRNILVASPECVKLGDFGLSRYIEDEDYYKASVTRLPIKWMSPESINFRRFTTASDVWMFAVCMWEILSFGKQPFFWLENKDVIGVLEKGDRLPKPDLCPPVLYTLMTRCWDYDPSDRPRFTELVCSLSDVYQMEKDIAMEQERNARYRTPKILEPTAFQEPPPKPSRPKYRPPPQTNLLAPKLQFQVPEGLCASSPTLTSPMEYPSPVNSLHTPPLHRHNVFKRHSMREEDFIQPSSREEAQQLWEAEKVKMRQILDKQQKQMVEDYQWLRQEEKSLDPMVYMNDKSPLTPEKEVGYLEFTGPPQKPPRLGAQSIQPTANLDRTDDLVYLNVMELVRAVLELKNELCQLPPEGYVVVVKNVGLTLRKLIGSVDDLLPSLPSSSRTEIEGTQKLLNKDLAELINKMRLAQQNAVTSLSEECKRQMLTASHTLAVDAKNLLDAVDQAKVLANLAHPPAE

[38] = molecular target: SGK3 (human) (UniProt Q96BR1)
[39] = molecular target: SRPK1 (human) (UniProt Q96SB4)
[40] = molecular target: STK10 (human) (UniProt O94804)
Chain of STK10 (human) (O94804 whole entry, looked up): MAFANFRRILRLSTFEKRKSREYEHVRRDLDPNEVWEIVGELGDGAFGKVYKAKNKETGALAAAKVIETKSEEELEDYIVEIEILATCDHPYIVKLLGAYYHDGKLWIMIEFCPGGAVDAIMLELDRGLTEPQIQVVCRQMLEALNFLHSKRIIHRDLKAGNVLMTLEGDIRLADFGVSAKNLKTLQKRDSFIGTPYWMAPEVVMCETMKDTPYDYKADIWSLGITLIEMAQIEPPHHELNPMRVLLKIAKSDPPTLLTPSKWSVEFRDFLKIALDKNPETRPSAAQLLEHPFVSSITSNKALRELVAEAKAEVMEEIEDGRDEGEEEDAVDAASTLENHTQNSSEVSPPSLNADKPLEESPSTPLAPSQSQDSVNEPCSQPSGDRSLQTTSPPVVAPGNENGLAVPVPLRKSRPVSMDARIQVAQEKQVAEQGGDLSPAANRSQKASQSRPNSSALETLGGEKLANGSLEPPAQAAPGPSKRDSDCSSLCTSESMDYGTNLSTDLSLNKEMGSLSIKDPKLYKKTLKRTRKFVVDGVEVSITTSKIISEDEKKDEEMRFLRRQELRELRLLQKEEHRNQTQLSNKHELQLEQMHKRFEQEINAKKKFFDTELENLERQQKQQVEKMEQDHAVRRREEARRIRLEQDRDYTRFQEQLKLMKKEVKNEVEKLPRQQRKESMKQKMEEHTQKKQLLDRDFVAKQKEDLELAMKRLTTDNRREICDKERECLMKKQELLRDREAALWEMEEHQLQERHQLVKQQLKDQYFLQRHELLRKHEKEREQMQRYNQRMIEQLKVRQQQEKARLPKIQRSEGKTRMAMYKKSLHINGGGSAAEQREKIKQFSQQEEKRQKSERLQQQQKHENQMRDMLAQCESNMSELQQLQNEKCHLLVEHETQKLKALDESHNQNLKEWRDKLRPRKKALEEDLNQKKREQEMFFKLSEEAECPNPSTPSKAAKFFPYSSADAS

[41] = molecular target: WNK3 (human) (UniProt Q9BYP7)

Chain of AXL (human) (P30530 whole entry, looked up): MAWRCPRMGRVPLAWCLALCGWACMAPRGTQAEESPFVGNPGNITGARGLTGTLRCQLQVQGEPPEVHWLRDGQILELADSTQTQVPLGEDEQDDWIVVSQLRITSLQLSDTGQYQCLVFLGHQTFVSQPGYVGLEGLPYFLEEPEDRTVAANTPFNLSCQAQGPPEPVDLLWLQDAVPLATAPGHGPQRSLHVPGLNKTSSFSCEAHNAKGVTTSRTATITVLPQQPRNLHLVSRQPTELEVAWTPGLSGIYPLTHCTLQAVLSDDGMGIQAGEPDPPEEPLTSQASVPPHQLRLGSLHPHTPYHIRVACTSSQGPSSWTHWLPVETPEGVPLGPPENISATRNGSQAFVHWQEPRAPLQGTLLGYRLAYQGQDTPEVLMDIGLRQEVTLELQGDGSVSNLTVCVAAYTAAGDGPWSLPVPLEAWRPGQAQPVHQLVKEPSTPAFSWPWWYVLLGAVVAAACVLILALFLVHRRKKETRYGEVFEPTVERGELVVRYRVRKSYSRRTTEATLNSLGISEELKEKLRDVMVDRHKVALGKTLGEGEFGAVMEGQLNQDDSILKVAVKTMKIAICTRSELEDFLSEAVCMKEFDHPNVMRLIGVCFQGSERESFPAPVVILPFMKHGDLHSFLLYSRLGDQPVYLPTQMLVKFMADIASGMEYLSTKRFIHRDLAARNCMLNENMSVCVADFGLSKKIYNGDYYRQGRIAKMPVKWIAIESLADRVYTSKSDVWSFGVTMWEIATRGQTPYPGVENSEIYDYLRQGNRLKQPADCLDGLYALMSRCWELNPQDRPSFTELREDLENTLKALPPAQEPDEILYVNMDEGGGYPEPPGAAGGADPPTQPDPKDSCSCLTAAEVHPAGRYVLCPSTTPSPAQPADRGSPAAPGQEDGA

Structure (SMILES): CCOC(=O)c1c(C)[nH]c(/C=C2\C(=O)Nc3ccccc32)c1C
- residual activity [1]: 87.6%
- residual activity [2]: 67.3%
- residual activity [3]: 88.9%
- residual activity [4]: 97.6%
- residual activity [5]: 96.8%
- residual activity [6]: 52.5%
- residual activity [7]: 103%
- residual activity [8]: 102%
- residual activity [9]: 80.3%
- residual activity [10]: 97.5%
- residual activity [11]: 89.5%
- residual activity [12]: 71.2%
- residual activity [13]: 92.6%
- residual activity [14]: 93.8%
- residual activity [15]: 86.3%
- residual activity [16]: 96.7%
- residual activity [17]: 102%
- residual activity [18]: 101%
- residual activity [19]: 101%
- residual activity [20]: 91.7%
- residual activity [21]: 93.9%
- residual activity [22]: 69.3%
- residual activity [23]: 92.7%
- residual activity [24]: 95.1%
- residual activity [25]: 62.3%
- residual activity [26]: 128%
- residual activity [27]: 92.5%
- residual activity [28]: 91.4%
- residual activity [29]: 82.8%
- residual activity [30]: 92.5%
- residual activity [31]: 96.2%
- residual activity [32]: 89.6%
- residual activity [33]: 92%
- residual activity [34]: 97.3%
- residual activity [35]: 98.2%
- residual activity [36]: 93%
- residual activity [37]: 80.6%
- residual activity [38]: 88.1%
- residual activity [39]: 95.4%
- residual activity [40]: 82.2%
- residual activity [41]: 104%

Structure (SMILES): O=S(=O)(c1cccc2cnccc12)N1CCCNCC1
- residual activity [1]: 115%
- residual activity [2]: 98.8%
- residual activity [3]: 97.2%
- residual activity [4]: 93.1%
- residual activity [5]: 95.5%
- residual activity [6]: 97.9%
- residual activity [7]: 89.6%
- residual activity [8]: 89.1%
- residual activity [9]: 98.5%
- residual activity [10]: 106%
- residual activity [11]: 107%
- residual activity [12]: 101%
- residual activity [13]: 95.9%
- residual activity [14]: 99.7%
- residual activity [15]: 90.7%
- residual activity [16]: 107%
- residual activity [17]: 117%
- residual activity [18]: 99.3%
- residual activity [19]: 96.1%
- residual activity [20]: 99.7%
- residual activity [21]: 72.6%
- residual activity [22]: 88.3%
- residual activity [23]: 101%
- residual activity [24]: 90.7%
- residual activity [25]: 73.2%
- residual activity [26]: 83.5%
- residual activity [28]: 97.1%
- residual activity [30]: 91.3%
- residual activity [31]: 95.4%
- residual activity [32]: 40.5%
- residual activity [33]: 103%
- residual activity [35]: 76.5%
- residual activity [36]: 93.9%
- residual activity [37]: 90.6%
- residual activity [38]: 91.6%
- residual activity [39]: 92.6%
- residual activity [40]: 103%
- residual activity [41]: 98.1%
